ChEMBL document CHEMBL5131567, “3,5,7-Substituted Pyrazolo[4,3-d]Pyrimidine Inhibitors of Cyclin-Dependent Kinases and Cyclin K Degraders” (J Med Chem, 2022)
Activity calls are given as the source filed them. The rule behind the calls is not given here.

Experiments:
CDK12/Cyclin K = CDK12/Cyclin K (Homo sapiens, UniProt Q9NYV4); assay: Inhibition of GST-tagged human CDK12/Cyclin K expressed in Sf9 cells using RBER-IRStide peptide as substrate in presence of ATP and [gamma33-P] ATP by radioisotope filter binding assay
DB = assay: Antiproliferative activity against human DB cells assessed as cell growth inhibition measured after 72 hrs by resazurin dye based microplate reader analysis; format: functional
MINO [1] = assay: Downregulation of cyclin K levels in human MINO cells at 5 nM incubated for 2 hrs by immunoblotting analysis; format: functional, cell-based
MINO [2] = assay: Downregulation of mcl-1 levels in human MINO cells incubated for 2 hrs by immunoblotting analysis; format: functional, cell-based; details: dose 2.5-40 nM, DDE = dose-dependent effect
VFN-D2 [3] = assay: In vivo induction of degradation of cyclin K in patient-derived VFN-D2 cells xenografted in NSG mouse assessed as reduction in cyclin K levels at 0.1 to 10 mg/kg, ip measured after 24 hrs by immunoblotting analysis; format: functional, organism-based; details: dose 0.1-10 mg/kg
[4] = target: Cyclin-dependent kinase 13/Cyclin-K (Homo sapiens, UniProt Q14004); assay: Inhibition of GST-tagged human CDK13/Cyclin K expressed in Sf9 cells using RBER-IRStide peptide as substrate in presence of ATP and [gamma33-P] ATP by radioisotope filter binding assay
MINO [5] = assay: Downregulation of CDK4 levels in human MINO cells incubated for 24 hrs by immunoblotting analysis; format: functional, cell-based; details: dose 2.5-40 nM, DDE = dose-dependent effect
[6] = Antiproliferative activity against human Ri-1 cells assessed as cell growth inhibition measured after 72 hrs by resazurin dye based microplate reader analysis; format: functional
SUD4 = assay: Antiproliferative activity against human SU-DHL-4 cells assessed as cell growth inhibition measured after 72 hrs by resazurin dye based microplate reader analysis; format: functional
[7] = target: Cyclin-dependent kinase 2/cyclin E1 (Homo sapiens, UniProt P24941); assay: Inhibition of His-tagged CDK2/cyclin E1 (unknown origin) expressed in Sf9 cells using histone H1 as substrate in presence of ATP and [gamma33-P]ATP by radioisotope filter binding assay; format: cell-based
MINO [8] = assay: Induction of degradation of cyclin K in human MINO cells coexpressing DDB1 with siRNA assessed as stabilization of cyclin K levels at 100 nM measured after 1 hrs by immunoblotting analysis; format: functional, cell-based
[9] = Antiproliferative activity against human MINO cells assessed as cell growth inhibition measured after 72 hrs by resazurin dye based microplate reader analysis; format: functional
[10] = Inhibition of GST-tagged human CDK5/p25 expressed in Sf9 cells using histone H1 as substrate in presence of ATP and [gamma33-P] ATP by radioisotope filter binding assay
MINO [11] = assay: Downregulation of RB levels in human MINO cells incubated for 24 hrs by immunoblotting analysis; format: functional, cell-based; details: dose 2.5-40 nM, DDE = dose-dependent effect
MINO [12] = assay: Induction of apoptosis in human MINO cells assessed as reduction in mcl-1 levels at 2.5 to 40 nM measured after 24 hrs by immunoblotting analysis; format: functional, cell-based; details: dose 2.5-40 nM
MINO [13] = assay: Inhibition of CDK in human MINO cells assessed as dephosphorylation of C-terminus of RNA polymerase II at serine 5 incubated for 2 hrs by immunoblotting analysis; format: cell-based; details: dose 0.005-5 µM, DDE = dose-dependent effect
U2932 = assay: Antiproliferative activity against human U2932 cells assessed as cell growth inhibition measured after 72 hrs by resazurin dye based microplate reader analysis; format: functional
[14] = Antiproliferative activity against human OCI-Ly2 cells assessed as cell growth inhibition measured after 72 hrs by resazurin dye based microplate reader analysis; format: functional
NU-DUL-1 = assay: Antiproliferative activity against human NU-DUL-1 cells assessed as cell growth inhibition measured after 72 hrs by resazurin dye based microplate reader analysis; format: functional
MINO [15] = assay: Inhibition of CDK in human MINO cells assessed as dephosphorylation of retinoblastoma protein incubated for 2 hrs by immunoblotting analysis; format: cell-based; details: dose 0.005-5 µM, DDE = dose-dependent effect
MINO [16] = assay: Induction of apoptosis in human MINO cells assessed as reduction in XIAP levels at 2.5 to 40 nM measured after 24 hrs by immunoblotting analysis; format: functional, cell-based; details: dose 2.5-40 nM
[17] = target: Cyclin-dependent kinase 2/G1/S-specific cyclin-D1 (Homo sapiens, UniProt P24385+P24941); format: cell-based, Sf9
[18] = Antiproliferative activity against human UPF1H cells assessed as cell growth inhibition measured after 72 hrs by resazurin dye based microplate reader analysis; format: functional
CDK9/cyclin T1 = CDK9/cyclin T1 (Homo sapiens, UniProt P50750); assay: Inhibition of GST-tagged human CDK9/Cyclin T1 expressed in Sf9 cells using (YSPTSPS)2KK peptide as substrate in presence of ATP and [gamma33-P] ATP by radioisotope filter binding assay; format: cell-based
MINO [19] = assay: Downregulation of cyclin K levels in human MINO cells at 50 nM incubated for 2 hrs by immunoblotting analysis; format: functional, cell-based
VFN-D2 [20] = assay: In vivo induction of degradation of cyclin K in patient-derived VFN-D2 cells xenografted in NSG mouse assessed as reduction in CDK12 levels at 0.1 to 10 mg/kg, ip measured after 24 hrs by immunoblotting analysis; format: functional, organism-based; details: dose 0.1-10 mg/kg
MINO [21] = assay: Downregulation of cyclin D1 levels in human MINO cells incubated for 24 hrs by immunoblotting analysis; format: functional, cell-based; details: dose 2.5-40 nM, DDE = dose-dependent effect
OCI-LY19 = assay: Antiproliferative activity against human OCILY19 cells assessed as cell growth inhibition measured after 72 hrs by resazurin dye based microplate reader analysis; format: functional
MINO [22] = assay: Inhibition of CDK in human MINO cells assessed as dephosphorylation of C-terminus of RNA polymerase II at serine 2 incubated for 2 hrs by immunoblotting analysis; format: cell-based; details: dose 0.005-5 µM, DDE = dose-dependent effect

CDK9/cyclin T1, sequence (O60563 whole entry): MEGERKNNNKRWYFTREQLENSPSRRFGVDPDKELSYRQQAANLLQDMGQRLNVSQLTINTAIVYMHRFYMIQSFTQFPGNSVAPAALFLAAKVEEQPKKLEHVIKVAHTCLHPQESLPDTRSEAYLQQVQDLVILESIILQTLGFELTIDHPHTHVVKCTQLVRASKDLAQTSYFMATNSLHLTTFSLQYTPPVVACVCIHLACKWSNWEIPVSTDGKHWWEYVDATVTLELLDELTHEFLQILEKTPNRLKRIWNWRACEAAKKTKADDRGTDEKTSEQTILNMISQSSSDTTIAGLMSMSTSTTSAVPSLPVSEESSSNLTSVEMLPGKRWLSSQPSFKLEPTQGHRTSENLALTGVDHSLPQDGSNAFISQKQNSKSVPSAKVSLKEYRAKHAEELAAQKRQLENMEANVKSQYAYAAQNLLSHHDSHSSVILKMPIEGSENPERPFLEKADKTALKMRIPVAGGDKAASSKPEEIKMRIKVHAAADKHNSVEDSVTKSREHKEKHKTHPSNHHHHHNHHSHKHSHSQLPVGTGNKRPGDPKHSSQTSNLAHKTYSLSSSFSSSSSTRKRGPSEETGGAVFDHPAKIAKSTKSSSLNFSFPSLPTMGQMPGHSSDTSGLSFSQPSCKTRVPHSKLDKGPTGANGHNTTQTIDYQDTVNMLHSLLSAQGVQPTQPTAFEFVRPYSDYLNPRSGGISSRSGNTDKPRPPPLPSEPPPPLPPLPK
CDK9/cyclin T1, sequence (P50750 whole entry): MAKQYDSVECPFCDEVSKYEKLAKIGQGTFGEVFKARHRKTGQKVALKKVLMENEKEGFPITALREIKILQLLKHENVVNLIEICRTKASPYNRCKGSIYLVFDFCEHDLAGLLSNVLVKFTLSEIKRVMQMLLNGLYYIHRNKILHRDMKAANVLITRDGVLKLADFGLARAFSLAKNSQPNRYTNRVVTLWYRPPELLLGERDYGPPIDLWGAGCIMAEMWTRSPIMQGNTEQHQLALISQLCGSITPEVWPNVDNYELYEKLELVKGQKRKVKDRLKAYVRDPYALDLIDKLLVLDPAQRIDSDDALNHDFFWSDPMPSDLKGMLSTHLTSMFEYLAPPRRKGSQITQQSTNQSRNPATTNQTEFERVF
Cyclin-dependent kinase 13/Cyclin-K, sequence (Q14004 whole entry): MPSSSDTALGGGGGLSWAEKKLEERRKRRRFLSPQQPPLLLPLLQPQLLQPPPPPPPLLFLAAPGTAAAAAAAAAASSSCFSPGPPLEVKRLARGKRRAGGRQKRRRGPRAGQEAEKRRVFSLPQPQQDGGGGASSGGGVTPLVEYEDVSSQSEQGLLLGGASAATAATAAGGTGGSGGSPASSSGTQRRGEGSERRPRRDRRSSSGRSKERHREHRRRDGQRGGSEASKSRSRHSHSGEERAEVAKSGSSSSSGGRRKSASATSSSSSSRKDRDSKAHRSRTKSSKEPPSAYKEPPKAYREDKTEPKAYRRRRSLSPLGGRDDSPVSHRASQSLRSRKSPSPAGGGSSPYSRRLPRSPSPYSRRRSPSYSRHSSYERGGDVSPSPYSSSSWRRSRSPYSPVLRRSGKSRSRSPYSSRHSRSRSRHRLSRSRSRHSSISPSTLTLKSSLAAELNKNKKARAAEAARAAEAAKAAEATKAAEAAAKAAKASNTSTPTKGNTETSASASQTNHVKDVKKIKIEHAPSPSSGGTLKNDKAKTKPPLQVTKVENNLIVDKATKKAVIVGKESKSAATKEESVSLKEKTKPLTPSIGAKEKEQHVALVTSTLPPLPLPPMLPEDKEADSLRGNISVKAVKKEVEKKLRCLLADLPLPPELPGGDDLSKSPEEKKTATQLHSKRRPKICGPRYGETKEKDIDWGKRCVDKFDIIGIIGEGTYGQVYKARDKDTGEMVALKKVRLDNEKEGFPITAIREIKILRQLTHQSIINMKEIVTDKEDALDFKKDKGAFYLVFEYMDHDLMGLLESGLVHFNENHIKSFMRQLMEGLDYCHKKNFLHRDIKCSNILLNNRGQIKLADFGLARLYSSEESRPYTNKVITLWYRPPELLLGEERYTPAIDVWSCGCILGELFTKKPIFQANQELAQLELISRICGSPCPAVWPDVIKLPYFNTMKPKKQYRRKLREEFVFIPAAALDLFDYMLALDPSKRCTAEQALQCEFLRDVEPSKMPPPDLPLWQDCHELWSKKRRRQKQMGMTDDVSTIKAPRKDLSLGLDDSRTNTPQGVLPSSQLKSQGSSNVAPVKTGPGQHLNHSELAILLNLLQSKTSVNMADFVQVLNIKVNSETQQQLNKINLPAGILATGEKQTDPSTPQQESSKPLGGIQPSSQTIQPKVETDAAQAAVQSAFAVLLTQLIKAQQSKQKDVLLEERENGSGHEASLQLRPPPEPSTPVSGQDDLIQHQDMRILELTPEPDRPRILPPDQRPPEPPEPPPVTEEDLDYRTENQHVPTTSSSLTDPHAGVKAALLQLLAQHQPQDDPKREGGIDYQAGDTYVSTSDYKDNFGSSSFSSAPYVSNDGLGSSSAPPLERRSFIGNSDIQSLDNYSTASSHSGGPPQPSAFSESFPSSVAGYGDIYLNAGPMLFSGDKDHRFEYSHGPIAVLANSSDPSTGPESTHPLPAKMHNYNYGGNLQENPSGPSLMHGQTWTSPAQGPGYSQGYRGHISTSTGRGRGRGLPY
Cyclin-dependent kinase 13/Cyclin-K, sequence (O75909 whole entry, further chain): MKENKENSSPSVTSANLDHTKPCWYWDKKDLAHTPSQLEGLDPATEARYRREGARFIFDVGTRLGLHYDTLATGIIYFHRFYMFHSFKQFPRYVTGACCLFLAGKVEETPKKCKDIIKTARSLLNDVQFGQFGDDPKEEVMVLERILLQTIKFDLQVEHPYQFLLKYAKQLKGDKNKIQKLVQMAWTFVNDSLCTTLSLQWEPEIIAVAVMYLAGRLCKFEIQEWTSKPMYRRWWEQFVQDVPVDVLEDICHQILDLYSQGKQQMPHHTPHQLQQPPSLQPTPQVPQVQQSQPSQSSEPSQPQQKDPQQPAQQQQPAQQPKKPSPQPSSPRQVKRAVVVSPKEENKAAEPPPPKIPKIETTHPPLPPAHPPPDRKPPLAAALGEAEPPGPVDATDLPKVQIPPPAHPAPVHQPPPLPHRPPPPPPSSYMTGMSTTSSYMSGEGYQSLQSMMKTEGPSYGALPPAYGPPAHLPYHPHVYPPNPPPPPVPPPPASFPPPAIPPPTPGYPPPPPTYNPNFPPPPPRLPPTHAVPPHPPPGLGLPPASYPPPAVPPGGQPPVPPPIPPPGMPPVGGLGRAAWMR
CDK12/Cyclin K, sequence (O75909 whole entry): as the sequence (O75909 whole entry, further chain) above
CDK12/Cyclin K, sequence (Q9NYV4 whole entry): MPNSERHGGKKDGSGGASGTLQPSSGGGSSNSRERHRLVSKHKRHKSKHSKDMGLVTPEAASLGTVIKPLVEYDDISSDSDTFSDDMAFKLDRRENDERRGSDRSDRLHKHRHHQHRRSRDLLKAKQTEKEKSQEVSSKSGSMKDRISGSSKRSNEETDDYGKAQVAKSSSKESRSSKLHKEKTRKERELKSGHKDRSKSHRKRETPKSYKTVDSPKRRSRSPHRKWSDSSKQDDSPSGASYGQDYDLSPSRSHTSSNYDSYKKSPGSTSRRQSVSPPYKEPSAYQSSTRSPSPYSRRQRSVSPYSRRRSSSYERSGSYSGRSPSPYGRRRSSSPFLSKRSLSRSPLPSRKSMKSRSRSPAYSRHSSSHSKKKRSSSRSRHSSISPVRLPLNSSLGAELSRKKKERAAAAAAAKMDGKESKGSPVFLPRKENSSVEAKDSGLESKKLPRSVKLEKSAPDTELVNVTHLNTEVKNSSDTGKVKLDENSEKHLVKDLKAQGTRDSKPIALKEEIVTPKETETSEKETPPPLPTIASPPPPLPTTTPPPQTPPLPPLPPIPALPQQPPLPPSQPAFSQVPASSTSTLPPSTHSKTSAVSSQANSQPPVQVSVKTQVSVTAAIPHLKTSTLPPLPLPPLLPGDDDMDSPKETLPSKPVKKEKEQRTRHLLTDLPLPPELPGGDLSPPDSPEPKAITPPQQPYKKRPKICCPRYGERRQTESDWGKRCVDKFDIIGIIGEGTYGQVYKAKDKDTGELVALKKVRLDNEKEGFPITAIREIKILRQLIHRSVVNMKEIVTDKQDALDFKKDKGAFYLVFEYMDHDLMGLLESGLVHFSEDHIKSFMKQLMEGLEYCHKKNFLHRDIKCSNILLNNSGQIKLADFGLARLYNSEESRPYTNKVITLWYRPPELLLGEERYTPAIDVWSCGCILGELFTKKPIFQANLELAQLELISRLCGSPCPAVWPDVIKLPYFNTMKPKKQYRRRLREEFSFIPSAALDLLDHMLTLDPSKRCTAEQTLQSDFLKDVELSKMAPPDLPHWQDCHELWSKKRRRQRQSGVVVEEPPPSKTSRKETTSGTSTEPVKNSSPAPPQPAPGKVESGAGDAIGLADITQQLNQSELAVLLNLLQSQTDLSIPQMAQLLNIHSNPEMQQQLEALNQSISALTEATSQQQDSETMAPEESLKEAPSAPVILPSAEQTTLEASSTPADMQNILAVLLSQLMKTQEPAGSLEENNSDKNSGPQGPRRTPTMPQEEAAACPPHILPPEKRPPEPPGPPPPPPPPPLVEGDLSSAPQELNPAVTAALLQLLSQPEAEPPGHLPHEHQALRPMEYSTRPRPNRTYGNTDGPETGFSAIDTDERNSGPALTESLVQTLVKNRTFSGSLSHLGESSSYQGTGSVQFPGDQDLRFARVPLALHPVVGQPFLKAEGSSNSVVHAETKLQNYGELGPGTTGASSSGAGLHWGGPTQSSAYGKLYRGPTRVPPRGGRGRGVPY

## NCCSc1nc(NCc2ccc(-n3cccn3)cc2)c2[nH]nc(C3CCC3)c2n1
CDK12/Cyclin K
  IC50: 64 nM
DB
  GI50: 20 nM
MINO [1]
  Activity: Active
MINO [2]
  Activity: Dde
VFN-D2 [3]
  Activity: Active
[4]
  IC50: 22 nM
MINO [5]
  Activity: Dde
[6]
  GI50: 54 nM
SUD4
  GI50: 28 nM
[7]
  IC50: 4 nM
MINO [8]
  Activity: Active
[9]
  GI50: 10 nM
[10]
  IC50: 39 nM
MINO [11]
  Activity: Dde
MINO [12]
  Activity: Active
MINO [13]
  Activity: Dde
U2932
  GI50: 55 nM
[14]
  GI50: 11 nM
NU-DUL-1
  GI50: 15 nM
MINO [15]
  Activity: Dde
MINO [16]
  Activity: Active
[17]
  IC50: > 1000 nM
[18]
  GI50: 10 nM
CDK9/cyclin T1
  IC50: 20 nM
MINO [19]
  Activity: Active
VFN-D2 [20]
  Activity: Active
MINO [21]
  Activity: Dde
OCI-LY19
  GI50: 465 nM
MINO [22]
  Activity: Dde
